Assay results from PMC9610610 (Vaccines, 2022).
Where no end group is shown, it is not given here.

Molecular target: HLA-DQ8 (Homo sapiens, UniProt P01909+P01920, A209T/A45G/C70Q/D89A/DUP78-78/E183D/E77G/F237L/G63E/H199R/I129T/K197E/L178F/L74F/L98V/Q57E/Q76R/S185I/S97I/T217I/T49S/V73L/Y58L)
Assay: biochemical
Format: binding

Chain of HLA-DQ8 (P01920 33-261 A45G/Y58L/E77G/D89A/H199R/T217I limits assumed, other chains not shown): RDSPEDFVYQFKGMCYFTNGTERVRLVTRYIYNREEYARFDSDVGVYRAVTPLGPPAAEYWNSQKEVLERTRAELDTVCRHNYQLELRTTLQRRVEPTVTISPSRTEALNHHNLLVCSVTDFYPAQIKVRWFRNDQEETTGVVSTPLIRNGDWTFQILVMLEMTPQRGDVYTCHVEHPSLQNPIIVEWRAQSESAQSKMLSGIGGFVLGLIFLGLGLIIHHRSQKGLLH

## ADVEVYRAVTPLGPPD [DQB45–57]
  IC50: 100 nM
